Laboratory results as given in patent US6989242B1, “Car receptors and related molecules and methods” (The General Hospital Coporation, priority 1992, dated 2006).

Key:
[1] = tested on: TR/CAR chimera; assay: Cotransfection of TR/CAR chimera with T3RE reporter, effect of added ligands; type: cell-based, human; conditions: JEG3 cells, charcoal-treated serum
Excerpt: To study the function of the putative ligand binding domain of the orphan, a chimeric receptor consisting of the C-terminal D, E and F domains of CAR (i.e., approximately amino acids 76-172, 173-319, and 320-348 of the CAR sequence, respectively) fused to the N-terminal A/B and C domains of TRβ was generated (termed TR/CAR), along with a control hybrid with the A/B and C domains of TR and the D, E and F domain of the glucocorticoid receptor (TR/GR). Vectors expressing these chimeras or the intact TR were cotransfected into JEG3 cells (ATCC Accession No: HTB 36) with reporter plasmids containing T3REs (i.e., of sequence […]; SEQ ID NO: 3) or GREs (from the MMTV promoter as described in Chandler et al., Cell 33:489, 1989) upstream of a reporter gene whose expression could be assayed. Transfections were carried out in the presence of serum treated with activated charcoal to remove T3 as well as other low molecular weight hydrophobic compounds that could act as CAR ligands.

[2] = target: T1, CAR (Homo sapiens, UniProt Q14994); assay: Activation of the RARβ element by CAR in cotransfections, effect of protein kinase A/C pathway treatments; type: cell-based; conditions: cotransfection
T1 construct: expressed in transfected cells
T1 sequence (Q14994 1-348 isoform Q14994-2): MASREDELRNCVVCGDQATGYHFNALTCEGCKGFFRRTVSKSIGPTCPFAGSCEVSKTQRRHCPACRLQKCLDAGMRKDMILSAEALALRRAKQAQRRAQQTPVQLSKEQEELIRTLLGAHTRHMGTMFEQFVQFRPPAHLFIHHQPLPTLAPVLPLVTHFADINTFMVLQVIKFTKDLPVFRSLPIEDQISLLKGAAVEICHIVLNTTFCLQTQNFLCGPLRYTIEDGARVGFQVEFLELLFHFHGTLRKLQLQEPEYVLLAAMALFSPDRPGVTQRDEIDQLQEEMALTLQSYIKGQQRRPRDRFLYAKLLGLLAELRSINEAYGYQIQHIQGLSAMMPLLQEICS
Excerpt: Based on the constitutive activity of the TR/CAR chimera and the similarity of the DNA binding domain of CAR to other members of the superfamily, a number of response elements were screened for activation by the intact orphan in standard cotransfections. […] However, CAR did transactivate two wild type elements, the RAREs from the RARβ gene and the alcohol dehydrogenase (ADH) gene (i.e., […]; SEQ ID NO: 5). RAREs which were not transactivated by CAR included a potent up mutant version of the rat growth hormone gene T3RE/RARE (i.e., of sequence […]; SEQ ID NO:6; in tandem copies with the second copy inverted; described in Brent et al., Mol. Endocrinol. 3:1996, 1989) and the wild type version of the laminin T3RE/RARE (i.e., of sequence […]; SEQ ID NO: 8).
The activation of the RARβ element by CAR is not affected by several treatments that activate or inactivate signal transduction pathways mediated by protein kinases A or C. Thus, CAR activation was not altered by addition of dibutyryl cyclic AMP, by short or long term treatments with phorbol esters, or by cotransfections with vectors expressing the specific protein kinase A inhibitor peptide.

[3] = target: mCAR1 + RXR (Mus musculus, UniProt O35627;P19793 O35627:1-358,P19793:1-462); assay: EMSA; high affinity; indistinguishable from RAR/RXR; conditions: chain copies: heterodimer (stated)
mCAR1 + RXR, sequence (P19793 whole entry, one chain of several): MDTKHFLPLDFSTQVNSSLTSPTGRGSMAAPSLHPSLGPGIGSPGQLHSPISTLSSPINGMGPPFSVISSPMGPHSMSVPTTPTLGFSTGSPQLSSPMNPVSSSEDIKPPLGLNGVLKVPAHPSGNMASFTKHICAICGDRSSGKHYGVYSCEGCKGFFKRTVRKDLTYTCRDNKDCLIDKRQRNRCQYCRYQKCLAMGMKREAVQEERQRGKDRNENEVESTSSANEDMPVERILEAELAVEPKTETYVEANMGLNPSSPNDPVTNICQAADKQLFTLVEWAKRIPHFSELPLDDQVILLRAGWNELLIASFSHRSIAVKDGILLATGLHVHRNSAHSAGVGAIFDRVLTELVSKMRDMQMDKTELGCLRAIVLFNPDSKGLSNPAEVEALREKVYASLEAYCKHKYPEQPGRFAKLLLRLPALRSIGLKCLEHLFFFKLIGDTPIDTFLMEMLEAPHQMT
Excerpt: (§1) FIG. 7 is a photograph showing DNA binding by mCAR1 and mCAR2. mCAR1, mCAR2, RXR, and RAR proteins were expressed by in vitro translation and used for electrophoretic mobility shift assays with a βRARE probe as indicated. "S" indicates competition with the βRARE oligonucleotide, and "NS" competition with a nonspecific oligonucleotide. Equivalent amounts of mCAR1, mCAR2, and RAR were used in the binding reactions, as determined by ^35S-methionine labeling.
(§2) For DNA binding studies, mCAR1, mCAR2, RAR, and RXR proteins were expressed using coupled in vitro transcription and translation (Promega, Inc.). Standard conditions were used for electrophoretic mobility shift assays with the DR-5 response element from the RARβ2 promoter (the βRARE) as the probe, as described for hCAR (MB67). In these experiments, mCAR1/RXR heterodimers bound with high affinity to the RARE from the RARβ2 isoform promoter (Sucov et al., Proc. Natl. Acad. Sci. USA 87:5392–5396, 1990; de The et al., Nature 343:177–180, 1990) (FIG. 7). […] This lack of mCAR2 binding was consistent with the absence of the C-terminal portion of the ligand/dimerization domain, which is essential for heterodimerization.

[4] = target: mCAR2 + RXR (Mus musculus, UniProt O35627-2;P19793 O35627-2:1-286,P19793:1-462); assay: EMSA; with RXR
mCAR2 + RXR, sequence (P19793 whole entry, one chain of several): as above
Excerpt: as §1, §2

[5] = target: T2, mCAR2 (splice variant lacking exon 8, 107 bp out-of-frame deletion; 6 new residues replace last 78 of mCAR1) (Mus musculus, UniProt O35627-2 O35627-2:1-286); assay: EMSA; alone; conditions: tags: GenBank variant of mCAR1
T2 sequence: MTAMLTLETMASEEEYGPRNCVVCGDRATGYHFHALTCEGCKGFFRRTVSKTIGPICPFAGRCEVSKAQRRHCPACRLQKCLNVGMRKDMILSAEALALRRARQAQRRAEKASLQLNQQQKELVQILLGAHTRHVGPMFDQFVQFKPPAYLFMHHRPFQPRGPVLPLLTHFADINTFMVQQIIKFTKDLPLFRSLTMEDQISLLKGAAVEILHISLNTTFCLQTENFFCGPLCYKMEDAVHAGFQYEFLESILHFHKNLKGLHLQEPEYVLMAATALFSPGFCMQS
Excerpt: as §1, §2

[6] = target: RAR + RXR (UniProt P10276;P19793 P10276:1-462,P19793:1-462); assay: EMSA; conditions: chain copies: heterodimer (stated)
RAR + RXR, sequence (P10276 whole entry, chain 1 of 2): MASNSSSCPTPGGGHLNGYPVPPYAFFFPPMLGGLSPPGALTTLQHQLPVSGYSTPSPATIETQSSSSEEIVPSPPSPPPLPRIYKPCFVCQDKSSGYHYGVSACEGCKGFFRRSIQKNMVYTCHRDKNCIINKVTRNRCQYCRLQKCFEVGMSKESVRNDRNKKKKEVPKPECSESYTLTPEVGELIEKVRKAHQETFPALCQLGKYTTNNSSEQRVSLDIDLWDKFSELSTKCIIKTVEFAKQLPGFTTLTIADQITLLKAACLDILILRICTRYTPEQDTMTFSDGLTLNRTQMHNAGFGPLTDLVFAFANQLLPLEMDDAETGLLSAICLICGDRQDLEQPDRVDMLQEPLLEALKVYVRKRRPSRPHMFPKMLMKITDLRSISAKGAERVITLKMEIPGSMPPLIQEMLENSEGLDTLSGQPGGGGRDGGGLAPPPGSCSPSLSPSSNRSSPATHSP
RAR + RXR, sequence (P19793 whole entry, chain 2 of 2): as the sequence (P19793 whole entry, one chain of several) above
Excerpt: as §1, §2

[7] = tested on: βRARE; assay: Transactivation of βRARE-TK luciferase reporter in cotransfected HepG2 cells; type: cell-based, human; conditions: various cell types and conditions, no added ligand
Excerpt: To determine whether mCAR1 transactivated the βRARE in the absence of retinoids or any other exogenously added ligands, this construct was cotransfected with a luciferase reporter plasmid in which 3 copies of the βRARE were inserted upstream of the TK promoter. To carry out these experiments, HepG2 cells were maintained and transfected using calcium phosphate or DEAE dextran (Ausubel et al., Current Protocols in Molecular Biology, Greene Pub. Assoc.: New York, 1997). mCAR1 and mCAR2 expression vectors were generated by inserting appropriate fragments into the vector CDM8 (Seed, Nature 329:840-842, 1987), as previously described for hCAR. The luciferase reporter plasmid (Gulick et al., Proc. Natl. Acad. Sci. USA 91:11012-11016, 1994) contained three copies of the βRARE upstream of the TK promoter. The reporter plasmids with wild type and mutant versions of the RARβ2 promoter have been described (Moghal et al., Mol. Cell. Biol. 15:3945-3959, 1995). […]
For the TK reporter, pairs of 30 mm dishes were each transfected with 2 μg of reporter and pTKGH, and a total of 2 μg of mammalian expression vector. […] Transfections were carried out in media containing 10% charcoal stripped serum, and luciferase activity was determined using the Promega luciferase assay system as described by the manufacturer. […]

Molecule: C[C@H](CCCC(C)(C)O)[C@H]1CC[C@H]2[C@@H]3CC=C4C[C@@H](O)CC[C@]4(C)[C@H]3CC[C@]12C [25-hydroxy cholesterol]
- effect of added ligand on ligand-independent activation of T3RE reporter by TR/CAR chimera [1]: not altered

Molecule: N[C@@H](Cc1cc(I)c(Oc2ccc(O)c(I)c2)c(I)c1)C(=O)O [T3]
- effect of added ligand on ligand-independent activation of T3RE reporter by TR/CAR chimera [1]: not altered

Molecule: C[C@]12CC[C@@H]3c4ccc(O)cc4CC[C@H]3[C@@H]1CC[C@@H]2O [astraddle]
- effect of added ligand on ligand-independent activation of T3RE reporter by TR/CAR chimera [1]: not altered

Molecule: CCCC(=O)Nc1ncnc2c1ncn2[C@@H]1O[C@@H]2COP(=O)(O)O[C@H]2[C@H]1OC(=O)CCC [dibutyryl cyclic AMP]
- effect on CAR activation of the RARβ element [2]: not altered

Molecule: CC1=C(/C=C/C(C)=C/C=C/C(C)=C/C(=O)O)C(C)(C)CCC1 [resinoid acid]
- effect of added ligand on ligand-independent activation of T3RE reporter by TR/CAR chimera [1]: not altered

Molecule: C[C@]12CC[C@H]3[C@@H](CCC4=CC(=O)CC[C@@]43C)[C@@H]1CC[C@@H]2O [testosterone]
- effect of added ligand on ligand-independent activation of T3RE reporter by TR/CAR chimera [1]: not altered

B1: betaRARE (RARbeta2 promoter DR-5) (dsDNA)
DNA 1: GGGTAGGGTTCACCGAAAGTTCACTCG
DNA 2: CGAGTGAACTTTCGGTGAACCCTACCC
- binding result [3]: binds
- binding result [4]: no binding
- binding result [5]: no binding
- binding result [6]: binds

B2: hCAR: human CAR receptor, 348 amino acids, SEQ ID NO:10 (protein, listed as Homo sapiens)
chain: MASREDELRNCVVCGDQATGYHFNALTCEGCKGFFRRTVSKSIGPTCPFAGSCEVSKTQRRHCPACRLQKCLDAGMRKDMILSAEALALRRAKQAQRRAQQTPVQLSKEQEELIRTLLGAHTRHMGTMFEQFVQFRPPAHLFIHHQPLPTLAPVLPLVTHFADINTFMVLQVIKFTKDLPVFRSLPIEDQISLLKGAAVEICHIVLNTTFCLQTQNFLCGPLRYTIEDGARVGFQVEFLELLFHFHGTLRKLQLQEPEYVLLAAMALFSPDRPGVTQRDEIDQLQEEMALTLQSYIKGQQRRPRDRFLYAKLLGLLAELRSINEAYGYQIQHIQGLSAMMPLLQEICS
- transactivation of βRARE reporter [7]: 20-100 fold
